These are literature values, as cited in US12324430B2, “Topical antiseptic system” (INFECTION CONTAINMENT COMPANY, LLC, priority 2015, dated 2025).

zinc glycerate: the “water solubility (in words)” value is “moderately water soluble”.

As to zinc picolinate, the “water solubility (in words)” value was “moderately water soluble”.
